Assay results reported in the CheMixHub viscosity set.

Assay: xn = mol fraction of the nth substance listed

CC(C)CC(=O)CC(C)C + CCC(C)O
viscosity [mPa·s], 100 kPa
Conditions	x1 = 0.0815	x1 = 0.157	x1 = 0.2356	x1 = 0.3483	x1 = 0.4431	x1 = 0.5526	x1 = 0.6467	x1 = 0.7381	x1 = 0.8512	x1 = 0.9337
293.15 K	2.84	2.17	1.64	1.1	0.8	0.61	0.59	0.66	0.78	0.87
298.15 K	2.36	1.82	1.36	0.88	0.63	0.47	0.45	0.54	0.69	0.81
303.15 K	2	1.54	1.15	0.73	0.5	0.37	0.35	0.44	0.61	0.75
308.15 K	1.69	1.33	0.99	0.64	0.44	0.31	0.27	0.36	0.56	0.72
313.15 K	1.42	1.11	0.85	0.55	0.39	0.27	0.24	–	0.51	0.66
318.15 K	1.23	0.99	0.77	0.5	0.35	0.22	0.19	0.27	0.47	0.62
323.15 K	1.11	0.91	0.72	0.46	0.3	0.17	0.15	0.23	0.42	0.57

CCCCCCO + CO
298.15 K, 101.33 kPa
Conditions	viscosity [mPa·s]
x2 = 0.1054	3.881
x2 = 0.2016	3.351
x2 = 0.3144	2.778
x2 = 0.4093	2.348
x2 = 0.5053	1.968
x2 = 0.6027	1.615
x2 = 0.7094	1.278
x2 = 0.8038	1.001
x2 = 0.9022	0.7601

CN(C)C(=N)NC(=N)N.Cl + O
viscosity [mPa·s]
Conditions	298.15 K	303.15 K	308.15 K	313.15 K	318.15 K
100 kPa, x1 = 0.00018	0.894	–	–	–	–
100 kPa, x1 = 0.0003598	0.896	0.803	–	–	–
100 kPa, x1 = 0.0005412	0.898	0.805	0.726	–	–
100 kPa, x1 = 0.0007212	0.9	–	–	0.663	–
100 kPa, x1 = 0.0009	–	–	–	–	0.607
100 kPa, x1 = 0.0009014	0.902	0.809	0.73	0.665	–
100 kPa, x1 = 0.001079	0.904	0.811	0.732	0.667	–
100 kPa, x1 = 0.001259	0.906	–	0.734	0.669	–
100 kPa, x1 = 0.001439	0.908	0.815	0.736	0.671	–
100 kPa, x1 = 0.001619	0.91	0.817	0.738	0.673	–
100 kPa, x1 = 0.001798	0.912	0.819	0.74	0.675	–
100 kPa, x1 = 0.0018	–	–	0.739	0.675	0.613
100 kPa, x1 = 0.0027	–	–	0.75	0.68	0.622
101 kPa, x1 = 0.00011	–	–	0.721	–	0.597
101 kPa, x1 = 0.000241	–	–	0.723	–	0.598
101 kPa, x1 = 0.000481	–	–	0.726	–	0.6
101 kPa, x1 = 0.000722	0.903	–	0.729	–	0.601
101 kPa, x1 = 0.000965	0.907	–	0.732	–	0.604
101 kPa, x1 = 0.00121	0.91	–	0.735	–	0.606

O=C1CCCCC1 + C1COCCO1
viscosity [mPa·s], 101 kPa
Conditions	x1 = 0.099	x1 = 0.2022	x1 = 0.31	x1 = 0.4227	x1 = 0.5406	x1 = 0.6641	x1 = 0.728	x1 = 0.8607	x1 = 0.9295
293.15 K	1.323	1.352	1.396	1.463	1.56	1.694	1.782	2.003	2.148
298.15 K	1.214	1.239	1.281	1.341	1.429	1.544	1.626	1.816	1.941
303.15 K	1.12	1.142	1.184	1.235	1.324	1.417	1.489	1.657	1.769
308.15 K	1.036	1.06	1.094	1.145	1.224	1.315	1.373	1.513	1.618
313.15 K	0.9598	0.9803	1.017	1.063	1.143	1.212	1.263	1.39	1.497

CC(=O)CC(C)C + CC(C)CO
viscosity [mPa·s], 101 kPa
Conditions	298.15 K	303.15 K	308.15 K
x2 = 0.3997	–	0.703	0.656
x2 = 0.4937	0.851	0.786	0.73

CCCCCCO + CCCCCCCCCCCC
298.15 K, 101 kPa
Conditions	viscosity [mPa·s]
x2 = 0.0555	3.93
x2 = 0.0999	3.52
x2 = 0.1555	3.06
x2 = 0.1999	2.74
x2 = 0.2554	2.38
x2 = 0.2999	2.12
x2 = 0.3555	1.85
x2 = 0.3998	1.66
x2 = 0.4555	1.47
x2 = 0.4999	1.34
x2 = 0.5554	1.21
x2 = 0.5998	1.14
x2 = 0.6554	1.07
x2 = 0.6999	1.04
x2 = 0.7555	1.02
x2 = 0.7997	1.03
x2 = 0.8555	1.06
x2 = 0.8998	1.09
x2 = 0.9555	1.15

O=C1CCCCC1 + CCCCCCC
viscosity [mPa·s]
Conditions	298.15 K	303.15 K	308.15 K
101 kPa, x1 = 0.1125	0.437	–	–
101 kPa, x1 = 0.2097	0.484	–	–
101 kPa, x1 = 0.3055	0.539	–	–
101 kPa, x1 = 0.4144	0.616	–	–
101 kPa, x1 = 0.5033	0.702	–	–
101 kPa, x1 = 0.5928	0.803	–	–
101 kPa, x1 = 0.7027	0.97	–	–
101 kPa, x1 = 0.8091	1.184	–	–
101 kPa, x1 = 0.8686	1.34	–	–
101.33 kPa, x1 = 0.1046	0.427	0.403	0.384
101.33 kPa, x1 = 0.2024	0.472	0.445	0.421
101.33 kPa, x1 = 0.3035	0.529	0.497	0.47
101.33 kPa, x1 = 0.4016	0.606	0.564	0.53
101.33 kPa, x1 = 0.5025	0.69	0.644	0.605
101.33 kPa, x1 = 0.5993	0.805	0.75	0.701
101.33 kPa, x1 = 0.7026	0.96	0.893	0.828
101.33 kPa, x1 = 0.8009	1.178	1.085	1.004
101.33 kPa, x1 = 0.9009	1.474	1.349	1.235
